Results from ChEMBL document CHEMBL4507290 (2021).

Experiments:
[1] = target: Tyrosine-protein kinase ABL2 (Homo sapiens) (UniProt P42684); conditions: Compound concentration 1000.0 nM
[2] = target: RAC-beta serine/threonine-protein kinase (Homo sapiens) (UniProt P31751); conditions: Compound concentration 1000.0 nM
[3] = target: 5'-AMP-activated protein kinase catalytic subunit alpha-1 (Homo sapiens) (UniProt Q13131); conditions: Compound concentration 1000.0 nM
[4] = target: NUAK family SNF1-like kinase 1 (Homo sapiens) (UniProt O60285); conditions: Compound concentration 1000.0 nM
[5] = target: Mitotic checkpoint serine/threonine-protein kinase BUB1 (Homo sapiens) (UniProt O43683); conditions: Compound concentration 1000.0 nM
[6] = target: Calcium/calmodulin-dependent protein kinase type 1B (Homo sapiens) (UniProt Q6P2M8); conditions: Compound concentration 1000.0 nM
[7] = target: Peripheral plasma membrane protein CASK (Homo sapiens) (UniProt O14936); conditions: Compound concentration 1000.0 nM
[8] = target: Cyclin-dependent kinase 11B (Homo sapiens) (UniProt P21127); conditions: Compound concentration 1000.0 nM
[9] = target: Dual specificity protein kinase CLK4 (Homo sapiens) (UniProt Q9HAZ1); conditions: Compound concentration 1000.0 nM
[10] = target: Casein kinase I isoform alpha-like (Homo sapiens) (UniProt Q8N752); conditions: Compound concentration 1000.0 nM
[11] = target: Casein kinase I isoform gamma-3 (Homo sapiens) (UniProt Q9Y6M4); conditions: Compound concentration 1000.0 nM
[12] = target: Death-associated protein kinase 1 (Homo sapiens) (UniProt P53355); conditions: Compound concentration 1000.0 nM
[13] = target: Ephrin type-A receptor 7 (Homo sapiens) (UniProt Q15375); conditions: Compound concentration 1000.0 nM
[14] = target: Ephrin type-B receptor 1 (Homo sapiens) (UniProt P54762); conditions: Compound concentration 1000.0 nM
[15] = target: Mitogen-activated protein kinase 4 (Homo sapiens) (UniProt P31152); conditions: Compound concentration 1000.0 nM
[16] = target: Tyrosine-protein kinase Fer (Homo sapiens) (UniProt P16591); conditions: Compound concentration 1000.0 nM
[17] = target: Interleukin-1 receptor-associated kinase 4 (Homo sapiens) (UniProt Q9NWZ3); conditions: Compound concentration 1000.0 nM
[18] = target: Tyrosine-protein kinase JAK2 (Homo sapiens) (UniProt O60674); conditions: Compound concentration 1000.0 nM
[19] = target: Mitogen-activated protein kinase 8 (Homo sapiens) (UniProt P45983); conditions: Compound concentration 1000.0 nM
[20] = target: Mast/stem cell growth factor receptor Kit (Homo sapiens) (UniProt P10721); conditions: Compound concentration 1000.0 nM
[21] = target: Mitogen-activated protein kinase kinase kinase 2 (Homo sapiens) (UniProt Q9Y2U5); conditions: Compound concentration 1000.0 nM
[22] = target: MAP kinase-interacting serine/threonine-protein kinase 2 (Homo sapiens) (UniProt Q9HBH9); conditions: Compound concentration 1000.0 nM
[23] = target: Mitogen-activated protein kinase kinase kinase 11 (Homo sapiens) (UniProt Q16584); conditions: Compound concentration 1000.0 nM
[24] = target: Serine/threonine-protein kinase MRCK alpha (Homo sapiens) (UniProt Q5VT25); conditions: Compound concentration 1000.0 nM
[25] = target: Macrophage-stimulating protein receptor (Homo sapiens) (UniProt Q04912); conditions: Compound concentration 1000.0 nM
[26] = target: Serine/threonine-protein kinase Nek4 (Homo sapiens) (UniProt P51957); conditions: Compound concentration 1000.0 nM
[27] = target: Serine/threonine-protein kinase Nek7 (Homo sapiens) (UniProt Q8TDX7); conditions: Compound concentration 1000.0 nM
[28] = target: Serine/threonine-protein kinase PAK 2 (Homo sapiens) (UniProt Q13177); conditions: Compound concentration 1000.0 nM
[29] = target: Serine/threonine-protein kinase PAK 5 (Homo sapiens) (UniProt Q9P286); conditions: Compound concentration 1000.0 nM
[30] = target: Phosphatidylinositol 4-phosphate 3-kinase C2 domain-containing subunit beta (Homo sapiens) (UniProt O00750); conditions: Compound concentration 1000.0 nM
[31] = target: Phosphatidylinositol 4,5-bisphosphate 3-kinase catalytic subunit alpha isoform (Homo sapiens) (UniProt P42336); conditions: Compound concentration 1000.0 nM
[32] = target: Serine/threonine-protein kinase PLK2 (Homo sapiens) (UniProt Q9NYY3); conditions: Compound concentration 1000.0 nM
[33] = target: Protein kinase C iota type (Homo sapiens) (UniProt P41743); conditions: Compound concentration 1000.0 nM
[34] = target: cAMP-dependent protein kinase catalytic subunit PRKX (Homo sapiens) (UniProt P51817); conditions: Compound concentration 1000.0 nM
[35] = target: Serine/threonine-protein kinase RIO1 (Homo sapiens) (UniProt Q9BRS2); conditions: Compound concentration 1000.0 nM
[36] = target: Serine/threonine-protein kinase SBK1 (Homo sapiens) (UniProt Q52WX2); conditions: Compound concentration 1000.0 nM
[37] = target: Serine/threonine-protein kinase TAO2 (Homo sapiens) (UniProt Q9UL54); conditions: Compound concentration 1000.0 nM
[38] = target: Tyrosine-protein kinase Tec (Homo sapiens) (UniProt P42680); conditions: Compound concentration 1000.0 nM
[39] = target: Non-receptor tyrosine-protein kinase TNK1 (Homo sapiens) (UniProt Q13470); conditions: Compound concentration 1000.0 nM
[40] = target: Activated CDC42 kinase 1 (Homo sapiens) (UniProt Q07912); conditions: Compound concentration 1000.0 nM
[41] = target: Testis-specific serine/threonine-protein kinase 1 (Homo sapiens) (UniProt Q9BXA7); conditions: Compound concentration 1000.0 nM
[42] = target: Serine/threonine-protein kinase WNK3 (Homo sapiens) (UniProt Q9BYP7); conditions: Compound concentration 1000.0 nM
[43] = target: Serine/threonine-protein kinase 32C (Homo sapiens) (UniProt Q86UX6); conditions: Compound concentration 1000.0 nM
[44] = target: 5-hydroxytryptamine receptor 7 (Homo sapiens) (UniProt P34969); conditions: Compound concentration 10.0 uM
[45] = target: Beta-1 adrenergic receptor (Homo sapiens) (UniProt P08588); conditions: Compound concentration 10.0 uM

Chain of Serine/threonine-protein kinase Nek7 (Homo sapiens) (Q8TDX7 whole entry, looked up): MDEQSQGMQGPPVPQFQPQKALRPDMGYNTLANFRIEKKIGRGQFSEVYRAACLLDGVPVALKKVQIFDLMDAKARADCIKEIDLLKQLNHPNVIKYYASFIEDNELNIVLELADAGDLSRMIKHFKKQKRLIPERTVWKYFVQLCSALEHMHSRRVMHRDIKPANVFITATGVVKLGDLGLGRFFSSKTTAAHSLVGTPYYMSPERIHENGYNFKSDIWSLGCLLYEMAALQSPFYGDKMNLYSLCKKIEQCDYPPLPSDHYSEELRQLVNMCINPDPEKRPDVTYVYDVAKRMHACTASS
Chain of Mitogen-activated protein kinase kinase kinase 11 (Homo sapiens) (Q16584 whole entry, looked up): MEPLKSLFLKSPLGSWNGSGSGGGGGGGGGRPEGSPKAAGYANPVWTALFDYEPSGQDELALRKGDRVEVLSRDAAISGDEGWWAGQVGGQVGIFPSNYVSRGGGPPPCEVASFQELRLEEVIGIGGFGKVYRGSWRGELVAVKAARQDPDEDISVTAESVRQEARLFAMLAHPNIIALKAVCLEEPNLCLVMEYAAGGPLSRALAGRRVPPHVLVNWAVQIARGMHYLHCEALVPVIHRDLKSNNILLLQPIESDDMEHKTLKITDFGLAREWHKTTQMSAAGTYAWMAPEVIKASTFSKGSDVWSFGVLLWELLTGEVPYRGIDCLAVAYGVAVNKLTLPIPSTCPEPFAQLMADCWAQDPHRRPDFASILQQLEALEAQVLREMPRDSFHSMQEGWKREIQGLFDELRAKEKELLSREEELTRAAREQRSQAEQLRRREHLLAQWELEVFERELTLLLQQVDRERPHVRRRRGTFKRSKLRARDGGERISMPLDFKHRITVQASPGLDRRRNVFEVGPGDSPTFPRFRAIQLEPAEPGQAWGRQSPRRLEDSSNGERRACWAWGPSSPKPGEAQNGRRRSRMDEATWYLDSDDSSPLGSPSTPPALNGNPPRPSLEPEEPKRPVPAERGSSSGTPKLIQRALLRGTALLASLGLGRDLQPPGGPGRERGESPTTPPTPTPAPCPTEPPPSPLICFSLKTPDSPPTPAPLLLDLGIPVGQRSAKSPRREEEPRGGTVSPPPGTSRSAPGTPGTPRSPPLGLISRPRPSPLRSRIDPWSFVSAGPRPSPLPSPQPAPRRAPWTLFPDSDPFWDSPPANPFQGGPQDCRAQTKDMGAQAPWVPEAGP
Chain of Non-receptor tyrosine-protein kinase TNK1 (Homo sapiens) (Q13470 whole entry): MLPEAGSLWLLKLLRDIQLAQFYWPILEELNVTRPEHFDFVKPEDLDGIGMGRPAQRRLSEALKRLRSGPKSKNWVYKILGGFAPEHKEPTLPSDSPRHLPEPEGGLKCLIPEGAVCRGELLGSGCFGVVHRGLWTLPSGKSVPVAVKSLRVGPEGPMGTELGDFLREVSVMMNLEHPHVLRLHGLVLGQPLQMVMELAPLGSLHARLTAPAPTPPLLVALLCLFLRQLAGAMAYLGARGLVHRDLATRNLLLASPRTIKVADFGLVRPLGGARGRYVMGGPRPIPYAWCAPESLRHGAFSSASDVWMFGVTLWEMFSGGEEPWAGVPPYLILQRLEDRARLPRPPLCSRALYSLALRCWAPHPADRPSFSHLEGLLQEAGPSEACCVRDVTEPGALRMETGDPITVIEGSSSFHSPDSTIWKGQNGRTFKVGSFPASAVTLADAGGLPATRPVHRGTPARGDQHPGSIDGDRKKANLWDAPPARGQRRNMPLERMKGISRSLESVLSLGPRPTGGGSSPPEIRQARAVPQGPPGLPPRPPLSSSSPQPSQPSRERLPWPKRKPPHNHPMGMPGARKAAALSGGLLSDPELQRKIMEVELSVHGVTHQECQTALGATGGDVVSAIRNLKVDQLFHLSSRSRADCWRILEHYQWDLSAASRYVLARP
Chain of Testis-specific serine/threonine-protein kinase 1 (Homo sapiens) (Q9BXA7 whole entry): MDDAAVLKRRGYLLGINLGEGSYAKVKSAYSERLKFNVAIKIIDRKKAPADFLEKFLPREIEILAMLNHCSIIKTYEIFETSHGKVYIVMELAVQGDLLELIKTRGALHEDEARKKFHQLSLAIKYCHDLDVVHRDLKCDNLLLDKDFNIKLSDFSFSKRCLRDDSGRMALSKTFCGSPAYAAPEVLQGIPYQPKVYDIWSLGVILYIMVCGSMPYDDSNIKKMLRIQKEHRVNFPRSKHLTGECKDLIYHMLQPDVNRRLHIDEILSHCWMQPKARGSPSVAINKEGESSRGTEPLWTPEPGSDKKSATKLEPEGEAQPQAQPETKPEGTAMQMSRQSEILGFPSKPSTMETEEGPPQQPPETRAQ
Chain of 5'-AMP-activated protein kinase catalytic subunit alpha-1 (Homo sapiens) (Q13131 whole entry, looked up): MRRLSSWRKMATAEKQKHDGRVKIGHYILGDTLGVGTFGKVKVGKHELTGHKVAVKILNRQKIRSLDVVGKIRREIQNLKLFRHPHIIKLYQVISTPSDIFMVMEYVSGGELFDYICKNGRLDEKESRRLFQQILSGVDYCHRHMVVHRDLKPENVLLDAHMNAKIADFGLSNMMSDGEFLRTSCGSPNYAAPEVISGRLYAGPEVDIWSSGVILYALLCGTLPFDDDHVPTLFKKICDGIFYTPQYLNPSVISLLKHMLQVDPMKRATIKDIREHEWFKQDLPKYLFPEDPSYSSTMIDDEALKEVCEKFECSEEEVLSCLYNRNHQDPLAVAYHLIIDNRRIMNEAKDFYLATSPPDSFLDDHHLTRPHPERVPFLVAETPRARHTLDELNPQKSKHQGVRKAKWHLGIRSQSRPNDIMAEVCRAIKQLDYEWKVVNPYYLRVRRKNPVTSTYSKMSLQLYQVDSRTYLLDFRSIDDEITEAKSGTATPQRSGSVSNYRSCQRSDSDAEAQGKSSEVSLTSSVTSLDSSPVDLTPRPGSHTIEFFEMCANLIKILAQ
Chain of Casein kinase I isoform alpha-like (Homo sapiens) (Q8N752 whole entry, canonical isoform): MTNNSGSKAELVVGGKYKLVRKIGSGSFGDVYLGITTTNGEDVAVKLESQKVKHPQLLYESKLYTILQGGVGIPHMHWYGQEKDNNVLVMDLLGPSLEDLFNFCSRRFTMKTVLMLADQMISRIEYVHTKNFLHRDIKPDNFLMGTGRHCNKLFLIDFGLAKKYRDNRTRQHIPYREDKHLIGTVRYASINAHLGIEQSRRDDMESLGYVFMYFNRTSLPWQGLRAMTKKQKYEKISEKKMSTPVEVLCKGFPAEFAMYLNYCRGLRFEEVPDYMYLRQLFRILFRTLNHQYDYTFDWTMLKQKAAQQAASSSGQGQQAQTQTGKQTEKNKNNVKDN
Chain of Serine/threonine-protein kinase 32C (Homo sapiens) (Q86UX6 whole entry): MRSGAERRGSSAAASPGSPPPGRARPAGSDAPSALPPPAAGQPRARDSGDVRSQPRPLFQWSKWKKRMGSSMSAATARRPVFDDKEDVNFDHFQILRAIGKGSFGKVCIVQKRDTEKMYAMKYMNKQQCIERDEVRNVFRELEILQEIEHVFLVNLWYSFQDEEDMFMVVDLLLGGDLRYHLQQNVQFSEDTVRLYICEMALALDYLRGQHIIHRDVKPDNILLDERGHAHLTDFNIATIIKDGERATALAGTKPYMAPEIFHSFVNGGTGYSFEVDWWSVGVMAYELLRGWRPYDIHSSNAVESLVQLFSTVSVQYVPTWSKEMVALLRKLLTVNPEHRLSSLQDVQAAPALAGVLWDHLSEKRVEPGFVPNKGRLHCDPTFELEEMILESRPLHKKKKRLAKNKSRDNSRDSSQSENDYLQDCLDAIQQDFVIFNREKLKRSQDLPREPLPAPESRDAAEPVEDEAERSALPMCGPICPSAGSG
Chain of MAP kinase-interacting serine/threonine-protein kinase 2 (Homo sapiens) (Q9HBH9 whole entry, looked up): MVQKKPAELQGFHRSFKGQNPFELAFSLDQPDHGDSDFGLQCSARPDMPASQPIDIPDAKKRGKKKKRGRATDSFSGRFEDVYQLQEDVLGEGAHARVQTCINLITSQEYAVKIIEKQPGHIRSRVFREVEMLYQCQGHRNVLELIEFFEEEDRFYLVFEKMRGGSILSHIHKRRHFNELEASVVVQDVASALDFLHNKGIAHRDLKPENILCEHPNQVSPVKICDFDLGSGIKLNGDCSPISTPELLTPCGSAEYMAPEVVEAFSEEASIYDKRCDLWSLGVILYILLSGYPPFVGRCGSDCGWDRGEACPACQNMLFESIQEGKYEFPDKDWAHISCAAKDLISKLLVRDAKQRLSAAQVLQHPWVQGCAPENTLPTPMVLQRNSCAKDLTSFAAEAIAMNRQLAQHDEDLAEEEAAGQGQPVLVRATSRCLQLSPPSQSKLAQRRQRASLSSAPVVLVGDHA
Chain of 5-hydroxytryptamine receptor 7 (Homo sapiens) (P34969 whole entry): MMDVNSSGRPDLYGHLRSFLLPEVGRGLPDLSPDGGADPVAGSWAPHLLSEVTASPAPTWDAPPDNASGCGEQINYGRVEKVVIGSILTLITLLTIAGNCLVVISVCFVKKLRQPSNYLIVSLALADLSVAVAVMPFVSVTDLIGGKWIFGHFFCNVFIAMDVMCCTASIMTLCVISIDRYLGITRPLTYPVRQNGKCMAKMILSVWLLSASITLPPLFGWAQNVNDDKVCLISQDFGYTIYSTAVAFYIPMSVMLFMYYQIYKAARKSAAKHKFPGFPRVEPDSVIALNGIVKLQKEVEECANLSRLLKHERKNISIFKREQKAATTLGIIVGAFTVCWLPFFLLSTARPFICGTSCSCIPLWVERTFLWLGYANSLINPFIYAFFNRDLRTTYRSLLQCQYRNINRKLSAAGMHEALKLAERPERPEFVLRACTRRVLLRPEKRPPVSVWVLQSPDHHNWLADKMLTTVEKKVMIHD
Chain of Calcium/calmodulin-dependent protein kinase type 1B (Homo sapiens) (Q6P2M8 whole entry): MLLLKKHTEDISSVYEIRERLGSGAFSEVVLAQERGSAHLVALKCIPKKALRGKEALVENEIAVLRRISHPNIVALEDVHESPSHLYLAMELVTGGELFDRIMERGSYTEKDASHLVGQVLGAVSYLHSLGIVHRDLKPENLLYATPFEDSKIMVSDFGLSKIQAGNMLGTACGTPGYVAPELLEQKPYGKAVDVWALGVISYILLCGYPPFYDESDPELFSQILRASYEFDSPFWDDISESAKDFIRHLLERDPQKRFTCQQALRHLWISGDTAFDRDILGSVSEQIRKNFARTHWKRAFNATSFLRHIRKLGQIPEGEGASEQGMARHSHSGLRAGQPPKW

CN([C@@H]1CCc2c(CC(=O)O)c3cc(S(C)(=O)=O)ccc3n2C1)S(=O)(=O)c1ccc(F)cc1
inactive: residual activity [1] 100% | residual activity [2] 92% | residual activity [3] 85% | residual activity [4] 100% | residual activity [5] 86% | residual activity [6] 90% | residual activity [7] 80% | residual activity [8] 100% | residual activity [9] 100% | residual activity [10] 94% | residual activity [11] 100% | residual activity [12] 100% | residual activity [13] 100% | residual activity [14] 100% | residual activity [15] 100% | residual activity [16] 100% | residual activity [17] 95% | residual activity [18] 100% | residual activity [19] 90% | residual activity [20] 89% | residual activity [21] 89% | residual activity [22] 100% | residual activity [23] 100% | residual activity [24] 100% | residual activity [25] 94% | residual activity [26] 91% | residual activity [27] 98% | residual activity [28] 100% | residual activity [29] 100% | residual activity [30] 100% | residual activity [31] 100% | residual activity [32] 90% | residual activity [33] 100% | residual activity [34] 100% | residual activity [35] 100% | residual activity [36] 100% | residual activity [37] 100% | residual activity [38] 100% | residual activity [39] 91% | residual activity [40] 92% | residual activity [41] 100% | residual activity [42] 83% | residual activity [43] 100% | inhibition [44] -3.44% | inhibition [45] -6.18%

CN([C@@H]1CCc2c(CC(=O)O)c3ccccc3n2C1)S(=O)(=O)c1ccc(F)cc1 [MK-7246]
inactive: residual activity [1] 100% | residual activity [2] 95% | residual activity [3] 100% | residual activity [4] 100% | residual activity [5] 79% | residual activity [6] 87% | residual activity [7] 66% | residual activity [8] 100% | residual activity [9] 100% | residual activity [10] 100% | residual activity [11] 100% | residual activity [12] 100% | residual activity [13] 100% | residual activity [14] 100% | residual activity [15] 100% | residual activity [16] 100% | residual activity [17] 93% | residual activity [18] 100% | residual activity [19] 77% | residual activity [20] 96% | residual activity [21] 100% | residual activity [22] 100% | residual activity [23] 100% | residual activity [24] 100% | residual activity [25] 93% | residual activity [26] 100% | residual activity [27] 100% | residual activity [28] 100% | residual activity [29] 100% | residual activity [30] 94% | residual activity [31] 100% | residual activity [32] 92% | residual activity [33] 100% | residual activity [34] 100% | residual activity [35] 100% | residual activity [36] 100% | residual activity [37] 82% | residual activity [38] 100% | residual activity [39] 99% | residual activity [40] 100% | residual activity [41] 100% | residual activity [42] 86% | residual activity [43] 100% | inhibition [44] 4.11% | inhibition [45] -2.68%
